Reference: PubChem BioAssay AID1549 (Sanford-Burnham Center for Chemical Genomics, 2009)
The source made the active and inactive calls. No rule for the calls is given here.

Molecular target: Influenza A virus M2 proton channel (A/TW/4845/1999 H1N1)
Experiment: NMR binding screen, influenza A virus M2 proton channel, Kd (AID 1549)
Conditions: M2 protein

SMILES: C=CCc1cc(C(=O)N2CCCCC2)ccc1O
- Kd: > 4 mM (inactive)

SMILES: Cc1cc(C(=O)Nc2cccnc2)cs1
- Kd: > 4 mM (inactive)

SMILES: Nc1nnc(SCc2ccc3c(c2)OCO3)s1
- Kd: > 4 mM (inactive)

SMILES: N/C(=N/S(=O)(=O)c1cccs1)c1ccccc1
- Kd: > 4 mM (inactive)

SMILES: NC(=O)CSc1nnc(-c2cccnc2)o1
- Kd: > 4 mM (inactive)

SMILES: O=C(O)CCN1CCOCC1
- Kd: > 4 mM (inactive)

SMILES: Cc1cc(C(=O)N2CCN(c3ncccn3)CC2)cs1
- Kd: > 4 mM (inactive)

SMILES: COc1ccc2c(c1)OC[C@@H](Cc1ccc(OC)c(OC)c1)[C@@H]2O
- Kd: > 4 mM (inactive)

SMILES: CC(C)=CCc1c2c(c3occ(-c4ccc(O)c(O)c4)c(=O)c3c1O)C=CC(C)(C)O2
- Kd: > 4 mM (inactive)

SMILES: CCN(CC)S(=O)(=O)c1ccc(F)cc1
- Kd: > 4 mM (inactive)

SMILES: O=c1n(-c2cccc(Cl)c2)c(=O)n2n1CCC2
- Kd: > 4 mM (inactive)

SMILES: O=C(Cc1cccs1)N1CCOCC1
- Kd: > 4 mM (inactive)

SMILES: Cc1noc(C)c1C(=O)NCc1cccs1
- Kd: > 4 mM (inactive)

SMILES: O=C1N=c2ccccc2=C1c1sc(=S)[nH]c1O
- Kd: > 4 mM (inactive)

SMILES: Oc1cc(O)c2c(c1)O[C@H](c1ccc(O)c(O)c1)[C@H](O)C2
- Kd: > 4 mM (inactive)

SMILES: Cn1nnc2cc(C(=O)O)ccc21
- Kd: > 4 mM (inactive)

SMILES: O=C(Nc1nnc(C(F)(F)F)s1)c1cccnc1
- Kd: > 4 mM (inactive)

SMILES: CN(C)C(=O)CSc1nc(N)cc(=O)[nH]1
- Kd: > 4 mM (inactive)

SMILES: O=C1CN(C(=O)CN2CCOCC2)c2ccccc2N1
- Kd: > 4 mM (inactive)

SMILES: Nc1ncnc2c1ncn2[C@@H]1O[C@H](CO)[C@@H](O)[C@H]1O
- Kd: > 4 mM (inactive)

SMILES: O=C(CSc1ncn[nH]1)c1ccc2c(c1)OCO2
- Kd: > 4 mM (inactive)

SMILES: CCOC(=O)CNC(=O)CSc1nnc(C)c(=O)[nH]1
- Kd: > 4 mM (inactive)

SMILES: CN(C)Cc1c(N)cccc1O
- Kd: > 4 mM (inactive)

SMILES: C[C@@H]1C(=O)OC2[C@H](O)C34[C@@H]5OC(=O)[C@@]3(O[C@@H]3OC(=O)[C@H](O)[C@@]34[C@H](C(C)(C)C)[C@H]5O)[C@]21O (stereo partly specified)
- Kd: > 4 mM (inactive)

SMILES: O=C(c1cc2ccccc2o1)N1CCCCCC1
- Kd: > 4 mM (inactive)

SMILES: O=C(NC(O)C(=O)c1ccccc1)c1ccco1 (stereo unspecified)
- Kd: > 4 mM (inactive)

SMILES: CCC1=Nc2ccccc2-c2nnc(SC)nc2O1
- Kd: > 4 mM (inactive)

SMILES: Nc1ncnc(NCCCO)c1[N+](=O)[O-]
- Kd: > 4 mM (inactive)

SMILES: NCCCCNCCCN
- Kd: > 4 mM (inactive)

SMILES: O=C(NCc1ccccc1Cl)c1cnn2cccnc12
- Kd: > 4 mM (inactive)

SMILES: Nc1nc(-c2ccccc2)ns1
- Kd: > 4 mM (inactive)

SMILES: O=C(NC(=S)NCc1cccnc1)c1ccco1
- Kd: > 4 mM (inactive)

SMILES: CC(=O)c1cccc(NC(=O)NN2CCOCC2)c1
- Kd: > 4 mM (inactive)

SMILES: Cn1cnc2c(cnn2-c2ccccc2)c1=O
- Kd: > 4 mM (inactive)

SMILES: NS(=O)(=O)c1ccc(NC(=O)c2ccccc2F)cc1
- Kd: > 4 mM (inactive)

SMILES: O=C(O)c1ccc2c(c1)OCO2
- Kd: > 4 mM (inactive)

SMILES: O=C(Nc1ccon1)c1sc2cc(F)ccc2c1Cl
- Kd: > 4 mM (inactive)

SMILES: CC(=O)Nc1ccc(NC(=O)c2ccncc2)cc1
- Kd: > 4 mM (inactive)

SMILES: Cc1c(-c2ccc(F)cc2)[n+](=O)c2c(n1[O-])CCC2
- Kd: > 4 mM (inactive)

SMILES: O=c1c(O)c(-c2ccccc2)oc2ccc3occc3c12
- Kd: > 4 mM (inactive)

SMILES: CC1(C)C[C@@H]2C(=O)CC[C@H]3O[C@]3(C)CC[C@H]21
- Kd: > 4 mM (inactive)

SMILES: Cc1nc2ccc(NC(=O)N3CCSCC3)cc2s1
- Kd: > 4 mM (inactive)

SMILES: NC(=O)NC(=O)Nc1ccc(Cl)cc1
- Kd: > 4 mM (inactive)

SMILES: NC(CCC(=O)Nc1ccc([N+](=O)[O-])cc1)C(=O)O (stereo unspecified)
- Kd: > 4 mM (inactive)

SMILES: NC(=O)C1CCN(CC2CC=CCC2)CC1 (stereo unspecified)
- Kd: > 4 mM (inactive)

SMILES: O=C1c2cccnc2C(=O)N1Cc1ccc2c(c1)OCO2
- Kd: > 4 mM (inactive)

SMILES: CN1CCN(C(=O)C2CCCNC2)CC1 (stereo unspecified)
- Kd: > 4 mM (inactive)

SMILES: CC(=O)Oc1c(C)c(C)c2c(c1C)CCC(C)(CCCC(C)CCCC(C)CCCC(C)C)O2 (stereo unspecified)
- Kd: > 4 mM (inactive)

SMILES: CCc1cc2c(SCC(=O)O)ncnc2s1
- Kd: > 4 mM (inactive)

SMILES: COc1ccc(C(=O)/C=C2\NC(=S)NC2=O)cc1
- Kd: > 4 mM (inactive)

SMILES: CNC(=O)c1cc(C)c(-c2ccccc2)s1
- Kd: > 4 mM (inactive)

SMILES: Cn1c(CSc2nc3ccccc3s2)n[nH]c1=S
- Kd: > 4 mM (inactive)

SMILES: NC(=O)CSc1ccc2nnc(-c3ccccc3)n2n1
- Kd: > 4 mM (inactive)

SMILES: COc1cc2c(cc1OC)Cc1cc(OC)c(OC)cc1Cc1cc(OC)c(OC)cc1C2
- Kd: > 4 mM (inactive)

SMILES: Nc1ccccc1C(=O)N1CCOCC1
- Kd: > 4 mM (inactive)

SMILES: O=C(c1ccccc1F)N1CCN(c2ccccc2)CC1
- Kd: > 4 mM (inactive)

SMILES: CC(=O)Nc1cccc(-c2n[nH]c(=S)n2C)c1
- Kd: > 4 mM (inactive)

SMILES: COC(=O)CSc1nc(N)cc(=O)[nH]1
- Kd: > 4 mM (inactive)

SMILES: CC(=O)Nc1cccc(N2CCCC2=O)c1
- Kd: > 4 mM (inactive)

SMILES: COc1cc(OC)c2c(=O)c(-c3ccccc3)coc2c1
- Kd: > 4 mM (inactive)

SMILES: COc1cc2c(cc1O)CCNC2C (stereo unspecified)
- Kd: > 4 mM (inactive)

SMILES: O=C(O)CNc1ncnc2nc[nH]c12
- Kd: > 4 mM (inactive)

SMILES: C=C1CCC2C(CC2(C)C)C(=O)CCC1O (stereo unspecified)
- Kd: > 4 mM (inactive)

SMILES: Cc1cc(C(=O)N2CCN(c3ccccn3)CC2)c(C)o1
- Kd: > 4 mM (inactive)

SMILES: CC1=C2C(O)C(=O)OC3CC4C(C)(C)C(=O)C=C[C@]4(C)C(CC1)[C@]23C (stereo partly specified)
- Kd: > 4 mM (inactive)

SMILES: NC(=O)c1ccc(NC(=O)c2cccnc2)cc1
- Kd: > 4 mM (inactive)

SMILES: c1csc(-c2nn[nH]n2)c1
- Kd: > 4 mM (inactive)

SMILES: CC(=O)c1cccc(NS(=O)(=O)N(C)C)c1
- Kd: > 4 mM (inactive)

SMILES: O=c1nc(C(F)(F)F)nc2ccccn12
- Kd: > 4 mM (inactive)

SMILES: O=c1[nH]c(=O)c2[nH]cnc2[nH]1
- Kd: > 4 mM (inactive)

SMILES: O=C(NC1CCS(=O)(=O)C1)C1CCCCC1 (stereo unspecified)
- Kd: > 4 mM (inactive)

SMILES: O=C1NC(=O)C(=Cc2ccccc2)C(=O)N1
- Kd: > 4 mM (inactive)

SMILES: CC(=O)Nc1nc(C)nc(-c2ccccc2)c1C(C)=O
- Kd: > 4 mM (inactive)

SMILES: CN(C)C1CCS(=O)(=O)C1 (stereo unspecified)
- Kd: > 4 mM (inactive)

SMILES: Nc1ccn(C2O[C@H](CO)[C@@H](O)[C@H]2O)c(=O)n1 (stereo partly specified)
- Kd: > 4 mM (inactive)

SMILES: COC(=O)CCC(C)[C@H]1CCC2C3C(C[C@H](O)[C@@]21C)[C@@]1(C)CC[C@@H](O)C[C@H]1C[C@H]3O (stereo partly specified)
- Kd: > 4 mM (inactive)

SMILES: O=C1NC(=Nc2ccccc2)S/C1=C/c1cccnc1
- Kd: > 4 mM (inactive)

SMILES: Cc1ccc(CCNc2ccccc2)c[n+]1[O-]
- Kd: > 4 mM (inactive)

SMILES: NC(=O)NCCCC(N)C(=O)O (stereo unspecified)
- Kd: > 4 mM (inactive)

SMILES: Nc1ccc2c(c1)N1CCN=C1S2
- Kd: > 4 mM (inactive)

SMILES: CCn1c(C)c(C(C)=O)c(N2CCN(C)CC2)nc1=S
- Kd: > 4 mM (inactive)

SMILES: NC1=NC(=O)/C(=C/c2ccc(O)c(Cl)c2)S1
- Kd: > 4 mM (inactive)

SMILES: COc1ccc(-c2cc(=O)c3ccccc3o2)cc1
- Kd: > 4 mM (inactive)

SMILES: CC(=O)OCc1cc(=O)n(C)c(=O)n1C
- Kd: > 4 mM (inactive)

SMILES: CS(=O)(=O)Nc1ccccc1C(=O)c1ccccc1
- Kd: > 4 mM (inactive)

SMILES: CC1CCN(C(=O)c2ccc(NS(C)(=O)=O)cc2)CC1
- Kd: > 4 mM (inactive)

SMILES: O=C(Nc1nc2c(s1)CCCC2)c1cccnc1
- Kd: > 4 mM (inactive)

SMILES: CCOC(=O)c1c(SC)nc(=O)[nH]c1C
- Kd: > 4 mM (inactive)

SMILES: Nc1ncnc2c1ncn2CCOc1ccccc1
- Kd: > 4 mM (inactive)

SMILES: O=C(Nc1ccon1)c1ccc(Br)o1
- Kd: > 4 mM (inactive)

SMILES: O=C1C2CC=CCC2C(=O)N1c1ccccc1O (stereo unspecified)
- Kd: > 4 mM (inactive)

SMILES: CC(=O)Nc1sccc1C(=O)NC(N)=O
- Kd: > 4 mM (inactive)

SMILES: O=C(NN1C(=O)CSC1=S)c1ccccc1
- Kd: > 4 mM (inactive)

SMILES: O=C1CNC(=O)N1c1cccc(Cl)c1
- Kd: > 4 mM (inactive)

SMILES: Cc1ccc(C(=O)NC2=NCCS2)o1
- Kd: > 4 mM (inactive)

SMILES: CC(=O)Nc1cc(S(=O)(=O)N(C)C)ccc1Cl
- Kd: > 4 mM (inactive)

SMILES: OCc1ccc(-n2cccn2)cc1
- Kd: > 4 mM (inactive)

SMILES: O=C(O)C1CSC(c2ccco2)N1 (stereo unspecified)
- Kd: > 4 mM (inactive)

SMILES: CC(C)=NNC(=O)C(=O)Nc1ccc(F)cc1
- Kd: > 4 mM (inactive)

SMILES: CS(=O)(=O)c1ccc2nc(N)sc2c1
- Kd: > 4 mM (inactive)

SMILES: OCC(O)C(O)C(O)CO (stereo unspecified)
- Kd: > 4 mM (inactive)

SMILES: O=C1N=c2ccccc2=C1c1[nH]c(=S)[nH]c1O
- Kd: > 4 mM (inactive)

SMILES: NCc1ccccc1N1CCCCC1
- Kd: > 4 mM (inactive)

SMILES: CNC(=O)Nc1cccc(C(F)(F)F)c1
- Kd: > 4 mM (inactive)

SMILES: C=C1C([C@]2(C)C(CC(=O)OC)[C@@](C)(COC(C)=O)OC(=O)C[C@@H]2OC(C)=O)[C@@H](OC=O)[C@H](OC(=O)C(O)C(C)CC)[C@@]2(C)[C@H](c3ccoc3)CC(=O)C12O (stereo partly specified)
- Kd: > 4 mM (inactive)

SMILES: O=C(/C=C(\O)c1ccccc1)c1ccccc1O
- Kd: > 4 mM (inactive)

SMILES: NCc1ccccc1N1CCOCC1
- Kd: > 4 mM (inactive)

SMILES: NC(=O)CSCc1c(Cl)cccc1Cl
- Kd: > 4 mM (inactive)

SMILES: CS(=O)(=O)c1nncn1-c1ccccc1
- Kd: > 4 mM (inactive)

SMILES: CN(C)N1C(=O)C2CCCCC2C1=O (stereo unspecified)
- Kd: > 4 mM (inactive)

SMILES: C[n+]1cccc(C(=O)[O-])c1
- Kd: > 4 mM (inactive)

SMILES: Cc1nn2c(nc1=O)SCC2(O)c1ccccc1 (stereo unspecified)
- Kd: > 4 mM (inactive)

SMILES: Cn1nc(-c2cccs2)cc1N
- Kd: > 4 mM (inactive)

SMILES: O=c1[nH]oc2ccccc12
- Kd: > 4 mM (inactive)

SMILES: CC(=O)Oc1c(C)cc(O)c2ccccc12
- Kd: > 4 mM (inactive)

SMILES: CN1CCC(N2CCN(C)CC2)CC1
- Kd: > 4 mM (inactive)

SMILES: O=C(Nc1ccccc1)Nc1ccccn1
- Kd: > 4 mM (inactive)

SMILES: Cc1ccc(Nc2nc(N)nc(CC#N)n2)cc1
- Kd: > 4 mM (inactive)

SMILES: COc1cc(O)c2c(=O)c(O)c(-c3ccc(O)c(O)c3)oc2c1
- Kd: > 4 mM (inactive)

SMILES: O=C1Cc2ccccc2N1c1ccccc1
- Kd: > 4 mM (inactive)

SMILES: CC1(C)Cc2nc3n[nH]c(N)c3cc2CO1
- Kd: > 4 mM (inactive)
